Values of other authors as cited in patent publication US20080234197A1, “Method(s) of stabilizing and potentiating the actions and administration of brain-derived neurotrophic factor (BDNF)” (priority 2007, published 2008).
Where two headings read alike, the source gives them in different places.

Experiments:
[1] = test system: spinal cord neurons
[2] = test system: glioma cells
[3] = test system: syntaxin 3; details: upon addition of fatty acid
[4] = test system: NPY and POMC neurons in the hypothalamus; details: ob/ob mice, after administration
[5] = test system: ARH explants; details: 100 ng/ml for 72 hours, explants from neonatal mice, vs control
[6] = test system: db/db mice; details: once or twice per week (70 mg/kg/wk) for 3 weeks, vs control

CCCCC/C=C\C/C=C\C/C=C\C/C=C\CCCC(=O)O [AA, arachidonic acid]
expression of BDNF ([1]; 2-hour exposure, spinal cord neurons): markedly diminished | dopamine uptake ([2]; 20-160 microM, pre-incubated 15-30 min): stimulated | dopamine uptake ([2]; 160 microM, longer pre-exposures 45-60 min): inhibited | intrinsic tyrosine fluorescence of syntaxin 3 [3]: marked changes

leptin: adiposity hormone produced by the white adipose tissue
time to normalization of synaptic density [4]: ≤ 6 h | induction of neurites from ARH explants [5]: significant induction of neurites

CC/C=C\C/C=C\C/C=C\CCCCCCCC(=O)O [ALA, alpha-linolenic acid]
intrinsic tyrosine fluorescence of syntaxin 3 [3]: marked changes

CCCCC/C=C\C/C=C\CCCCCCCC(=O)O [LA, cis-linoleic acid]
intrinsic tyrosine fluorescence of syntaxin 3 [3]: marked changes

CN1CCCC1c1cccnc1 (centres unmarked) [nicotine]
protection against arachidonic acid-induced apoptosis of spinal cord neurons [1]: fully protected | prevention of arachidonic acid-induced decrease of BDNF expression ([1]; pretreatment with 10-microM): fully prevented

CCCCCCCC/C=C\CCCCCCCC(=O)O [oleic acid]
intrinsic tyrosine fluorescence of syntaxin 3 [3]: ineffective

B1: BDNF: brain-derived neurotrophic factor, a neurotrophin protein (protein, UniProt P23560 19-247, looked up)
Neurotrophic factor BDNF …: APMKEANIRGQGGLAYPGVRTHGTLESVNGPKAGSRGLTSLADTFEHVIEELLDEDQKVRPNEENNKDADLYTSRVMLSSQVPLEPPLLFLLEEYKNYLDAANMSMRVRRHSDPARRGELSVCDSISEWVTAADKKTAVDMSGGTVTVLEKVPVSKGQLKQYFYETKCNPMGYTKEGCRGIDKRHWNSQCRTTQSYVRALTMDSKKRIGWRFIRIDTSCVCTLTIKRGR
protection against arachidonic acid-induced apoptosis of spinal cord neurons [1]: fully protected | blood glucose concentrations [6]: significantly reduced | hemoglobin A1c (HbA1c) [6]: significantly reduced
